According to ChEMBL document CHEMBL6120984, “Novel potent SOS1 inhibitors containing a tricyclic quinazoline scaffold: A joint view of experiments and simulations” (Eur J Med Chem, 2025):
Active and inactive are the calls of the source. The rule behind the calls is not given here.

How the values were obtained:
SOS1-KRAS = SOS1-KRAS (Homo sapiens, UniProt Q07889); experiment: Inhibition of 6His peptide-tagged recombinant human SOS1 (564 to 1049 residues)/N-terminal GST-tagged human recombinant KRAS G12C mutant protein-protein interaction incubated for 1 hrs by HTRF assay; format: protein-complex assay
[1] = Inhibition of ERK phosphorylation in human DLD-1 cells expressing KRAS G13D mutant incubated for 60 mins by HTRF assay; format: cell-based; conditions: DLD-1, 1 h
MIA PaCa-2 [2] = experiment: Antiproliferative activity against human MIA PaCa-2 cells expressing KRAS G12C mutant assessed as inhibition of cell proliferation incubated for 14 days in 3-D culture condition; format: functional, cell-based; conditions: MIA PaCa-2, 336 h
MIA PaCa-2 [3] = experiment: Antiproliferative activity against human MIA PaCa-2 cells expressing KRAS G12C mutant assessed as maximal inhibition of cell proliferation incubated for 14 days in 3-D culture condition relative to control; format: functional; conditions: time 14 day
[4] = Elimination rate constant in male CD-1 mouse at 10 mg/kg, po measured after 24 hrs by LC-MS/MS analysis; format: ADME, organism-based; conditions: in vivo
[5] = Half-life in male CD-1 mouse at 10 mg/kg, po measured after 24 hrs by LC-MS/MS analysis; format: ADME, organism-based; conditions: in vivo
[6] = Tmax in male CD-1 mouse at 10 mg/kg, po measured after 24 hrs by LC-MS/MS analysis; format: ADME, organism-based; conditions: in vivo
[7] = Cmax in male CD-1 mouse at 10 mg/kg, po measured after 24 hrs by LC-MS/MS analysis; format: ADME, organism-based; conditions: in vivo
[8] = AUC in male CD-1 mouse at 10 mg/kg, po measured after 24 hrs by LC-MS/MS analysis; format: ADME, organism-based; conditions: in vivo
[9] = MRT in male CD-1 mouse at 10 mg/kg, po measured after 24 hrs by LC-MS/MS analysis; format: ADME, organism-based; conditions: in vivo
NCI-H358 = experiment: Antiproliferative activity against human NCI-H358 cells expressing KRAS G12C mutant assessed as inhibition of cell proliferation; format: functional, cell-based
[10] = Therapeutic index, ratio of IC50 for human MCF-10A cells to IC50 for human MIA PaCa-2 cells expressing KRAS G12C mutant; format: toxicity; conditions: read-out: Ratio IC50
NCI-H441 = experiment: Antiproliferative activity against human NCI-H441 cells expressing KRAS G12V mutant assessed as inhibition of cell proliferation; format: functional, cell-based
DLD-1 = experiment: Antiproliferative activity against human DLD-1 cells expressing KRAS G13D mutant assessed as inhibition of cell proliferation; format: functional, cell-based
NCI-H520 = experiment: Antiproliferative activity against human NCI-H520 cells expressing wildtype KRAS assessed as inhibition of cell proliferation; format: functional, cell-based
[11] = Cytotoxicity against human MCF-10A cells assessed as inhibition of cell proliferation
[12] = Therapeutic index, ratio of IC50 for human MCF-10A cells to IC50 for human NCI-H358 cells expressing KRAS G12C mutant; format: toxicity; conditions: read-out: Ratio IC50
[13] = Therapeutic index, ratio of IC50 for human MCF-10A cells to IC50 for human NCI-H441 cells expressing KRAS G12V mutant; format: toxicity; conditions: read-out: Ratio IC50
[14] = Therapeutic index, ratio of IC50 for human MCF-10A cells to IC50 for human DLD-1 cells expressing KRAS G13D mutant; format: toxicity; conditions: MCF-10A cells versus DLD-1 cells expressing KRAS G13D mutant, read-out: Ratio IC50
MIA PaCa-2 [15] = experiment: Antitumor activity against human MIA PaCa-2 cells xenografted in female BALB/c nude mouse assessed as tumor growth inhibition at 50 mg/kg, po administered twice daily for 21 days relative to control; format: functional; conditions: MIA PaCa-2, 504 h, time 21 day, read-out: TGI
Mus musculus [16] = experiment: In vivo inhibition of ERK phosphorylation in female BALB/c nude mouse xenografted with human MIA PaCa-2 cells assessed as effect on phosphorylated ERK level in tumor at 50 mg/kg, po administered twice daily for 21 days; format: functional, organism-based; conditions: time 21.0 day
Mus musculus [17] = experiment: In vivo inhibition of AKT phosphorylation in female BALB/c nude mouse xenografted with human MIA PaCa-2 cells assessed as effect on phosphorylated AKT level in tumor at 50 mg/kg, po administered twice daily for 21 days; format: functional, organism-based; conditions: time 21.0 day
[18] = Toxicity in female BALB/c nude mouse xenografted with human MIA PaCa-2 cells assessed as animal death at 50 mg/kg, po administered twice daily for 21 days; format: organism-based; conditions: in vivo, 504 h, time 21 day
[19] = Toxicity in female BALB/c nude mouse xenografted with human MIA PaCa-2 cells assessed as body weight loss at 50 mg/kg, po administered twice daily for 21 days; format: organism-based; conditions: in vivo, 504 h, time 21 day

Chain of SOS1-KRAS (Q07889 whole entry, looked up, stated change not applied, the tested form may be a part): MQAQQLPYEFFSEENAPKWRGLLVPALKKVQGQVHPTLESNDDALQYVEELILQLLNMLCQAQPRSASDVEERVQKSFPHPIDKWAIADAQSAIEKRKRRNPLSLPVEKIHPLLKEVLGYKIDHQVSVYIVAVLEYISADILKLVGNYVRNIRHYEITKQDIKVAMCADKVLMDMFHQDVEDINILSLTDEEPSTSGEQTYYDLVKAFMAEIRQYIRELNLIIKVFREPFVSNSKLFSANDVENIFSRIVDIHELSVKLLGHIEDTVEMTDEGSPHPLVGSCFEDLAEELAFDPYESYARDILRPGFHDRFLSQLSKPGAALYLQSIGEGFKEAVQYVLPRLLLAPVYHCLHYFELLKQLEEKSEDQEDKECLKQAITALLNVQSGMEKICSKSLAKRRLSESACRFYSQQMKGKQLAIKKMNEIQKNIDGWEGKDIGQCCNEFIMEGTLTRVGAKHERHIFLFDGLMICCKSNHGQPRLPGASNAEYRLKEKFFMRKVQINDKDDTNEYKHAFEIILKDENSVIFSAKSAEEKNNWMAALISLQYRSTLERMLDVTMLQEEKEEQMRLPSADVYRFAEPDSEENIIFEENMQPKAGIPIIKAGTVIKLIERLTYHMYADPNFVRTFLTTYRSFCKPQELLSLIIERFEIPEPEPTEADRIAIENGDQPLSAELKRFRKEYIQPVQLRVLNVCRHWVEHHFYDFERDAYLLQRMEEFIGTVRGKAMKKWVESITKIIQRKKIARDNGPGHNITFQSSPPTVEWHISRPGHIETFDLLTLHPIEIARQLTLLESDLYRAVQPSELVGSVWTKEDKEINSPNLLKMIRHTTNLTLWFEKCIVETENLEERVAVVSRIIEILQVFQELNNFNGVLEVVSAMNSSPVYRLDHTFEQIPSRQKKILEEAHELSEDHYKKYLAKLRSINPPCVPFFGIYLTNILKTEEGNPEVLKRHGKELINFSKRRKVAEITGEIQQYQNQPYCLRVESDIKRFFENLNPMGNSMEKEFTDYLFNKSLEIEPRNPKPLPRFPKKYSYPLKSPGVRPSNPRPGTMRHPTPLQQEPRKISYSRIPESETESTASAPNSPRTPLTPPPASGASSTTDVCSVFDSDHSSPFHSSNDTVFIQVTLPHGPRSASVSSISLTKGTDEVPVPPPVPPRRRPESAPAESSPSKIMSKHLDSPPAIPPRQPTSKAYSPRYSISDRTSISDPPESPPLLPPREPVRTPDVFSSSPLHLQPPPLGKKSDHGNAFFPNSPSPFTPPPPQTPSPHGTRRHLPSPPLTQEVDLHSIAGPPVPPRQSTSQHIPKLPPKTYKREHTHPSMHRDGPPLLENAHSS

| Structure (SMILES) | IC50 (SOS1-KRAS) | IC50 [1] | IC50 (MIA PaCa-2 [2]) | Imax (MIA PaCa-2 [3]) | k el at 24 h [4] | half-life [5] | Tmax [6] | Cmax [7] | AUC at 24 h [8] | MRT [9] | also measured |
| --- | --- | --- | --- | --- | --- | --- | --- | --- | --- | --- | --- |
| Cc1nc(N[C@H](C)c2cccc(C(F)F)c2F)c2cc3c(cc2n1)OCCN3C(=O)N1CCN(C)CC1 | 24 nM | 97 nM | 660 nM | 79% | – | – | – | – | – | – | – |
| Cc1nc(N[C@H](C)c2cccc(C(F)F)c2F)c2cc3c(cc2n1)OCCN3C(=O)C1CCN(C)CC1 | 5.6 nM | 21 nM | 140 nM | 82% | 0.000111 s⁻¹ | 1.72 h | 0.5 h | 650 ng/mL | 1920 ng·h/mL | 2.11 h | – |
| Cc1nc(N[C@H](C)c2cccc(C(F)F)c2F)c2cc3c(cc2n1)OCCN3C(=O)C1CCN(C(C)C)CC1 | 5.1 nM | 18 nM | 110 nM | 86% | 0.000117 s⁻¹ | 1.65 h | 1.08 h | 790 ng/mL | 2910 ng·h/mL | 2.83 h | IC50 (NCI-H358): 70 nM; selectivity ratio [10]: > 400; IC50 (NCI-H441): 120 nM; IC50 (DLD-1): 70 nM; IC50 (NCI-H520): 2880 nM; IC50 [11]: 44600 nM; selectivity ratio [12]: > 400; selectivity ratio [13]: > 400; selectivity ratio [14]: > 400; inhibition in vivo at 50 mg/kg (MIA PaCa-2 [15]): 70.5%; inhibition (Mus musculus [16]): Active; inhibition (Mus musculus [17]): Active; Activity [18]: Non-toxic; Activity [19]: Non-toxic |
| COc1cc2nc(C)nc(N[C@H](C)c3cc(N)cc(C(F)(F)F)c3)c2cc1O[C@H]1CCOC1 | – | 30 nM | 150 nM | 85% | 0.000119 s⁻¹ | 1.67 h | 0.33 h | 870 ng/mL | 2300 ng·h/mL | 2.44 h | IC50 (NCI-H358): 120 nM; IC50 (NCI-H441): 160 nM; IC50 (DLD-1): 100 nM; IC50 (NCI-H520): 2630 nM; inhibition in vivo at 50 mg/kg (MIA PaCa-2 [15]): 56.3%; inhibition (Mus musculus [16]): Active; inhibition (Mus musculus [17]): Active |
| Cc1nc(N[C@H](C)c2cccc(C(F)F)c2F)c2cc3c(cc2n1)OCCN3C(=O)C1CCOCC1 | 19 nM | 71 nM | 1320 nM | 76% | – | – | – | – | – | – | – |
| C=C(F)C(=O)N1CCN(c2nc(OC[C@@H]3CCCN3C)nc3c2CCN(c2cccc4cccc(Cl)c24)C3)C[C@@H]1CC#N [ADAGRASIB] | – | – | 250 nM | 89% | – | – | – | – | – | – | – |
| Cc1nc(N[C@H](C)c2cccc(C(F)F)c2F)c2cc3c(cc2n1)OCCN3C(=O)N1CCN(C)C[C@@H]1C | 481 nM | > 3000 nM | > 10000 nM | 26% | – | – | – | – | – | – | – |
| Cc1nc(N[C@H](C)c2cccc(C(F)F)c2F)c2cc3c(cc2n1)OCCN3C(=O)C1CN(C)C1 | 94 nM | 330 nM | 1530 nM | 67% | – | – | – | – | – | – | – |
